The results in this text go back to patent publication US9133158B2, “Bicyclic dihydroisoquinoline-1-one derivatives” (Hoffmann-La Roche Inc., priority 2011, dated 2015).

Structures are written as SMILES.

As usually defined, the EC50 is the concentration that produces a half-maximal response.

One assay deals with T1, human CYP11B2 (Homo sapiens, UniProt P19099).
T1 construct: expressed in transfected cells
T1 sequence (P19099 25-503): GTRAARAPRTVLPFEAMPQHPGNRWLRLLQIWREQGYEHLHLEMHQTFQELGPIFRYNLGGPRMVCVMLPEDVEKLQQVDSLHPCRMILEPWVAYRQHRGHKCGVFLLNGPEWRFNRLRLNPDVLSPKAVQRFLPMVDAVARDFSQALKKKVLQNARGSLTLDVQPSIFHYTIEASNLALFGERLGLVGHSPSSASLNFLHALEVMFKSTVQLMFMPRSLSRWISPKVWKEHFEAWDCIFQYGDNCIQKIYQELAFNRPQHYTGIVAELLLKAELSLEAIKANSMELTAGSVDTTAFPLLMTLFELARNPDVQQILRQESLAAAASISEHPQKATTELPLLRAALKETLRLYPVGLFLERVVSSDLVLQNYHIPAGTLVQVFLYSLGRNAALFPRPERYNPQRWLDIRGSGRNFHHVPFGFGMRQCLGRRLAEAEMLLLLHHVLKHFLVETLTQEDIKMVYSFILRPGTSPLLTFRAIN
Kind of assay: G-402 cellular enzyme assay, human CYP11B2 (aldosterone release, HTRF). Type of assay: cell-based. The following applies: G-402 cells, 1 μM Deoxycorticosterone. Summed up: (§1)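 Steroid output from supernatants, quantified by HTRF as cortisol for CYP11B1 or aldosterone for CYP11B2, gave EC50 values by least-squares 4-parameter MMF fitting against inhibitor concentration. Stably transfected G-402 cells carrying the human enzyme received 1 μM deoxycortisol or 1 μM deoxycorticosterone respectively, 16 h, DMEM/F12 with 2.5% charcoal-stripped FCS.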
In general terms: TR-FRET usually uses a lanthanide donor and a delayed reading to cut background.

The target in a further assay is T2, human CYP11B1 (Homo sapiens, UniProt P15538).
T2 construct: expressed in transfected cells
T2 sequence (P15538 25-503): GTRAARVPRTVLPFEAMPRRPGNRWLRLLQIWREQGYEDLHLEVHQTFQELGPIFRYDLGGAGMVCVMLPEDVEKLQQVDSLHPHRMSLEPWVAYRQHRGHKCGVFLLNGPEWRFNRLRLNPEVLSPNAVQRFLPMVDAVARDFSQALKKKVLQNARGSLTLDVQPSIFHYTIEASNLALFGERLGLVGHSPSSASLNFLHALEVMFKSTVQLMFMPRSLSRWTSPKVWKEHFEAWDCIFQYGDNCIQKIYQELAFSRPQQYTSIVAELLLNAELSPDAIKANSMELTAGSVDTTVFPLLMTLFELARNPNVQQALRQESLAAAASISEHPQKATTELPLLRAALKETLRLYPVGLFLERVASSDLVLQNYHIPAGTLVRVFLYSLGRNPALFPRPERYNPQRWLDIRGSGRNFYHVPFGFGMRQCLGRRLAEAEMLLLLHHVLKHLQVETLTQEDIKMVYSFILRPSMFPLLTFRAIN
The assay is described as follows: G-402 cellular enzyme assay, human CYP11B1 (cortisol release, HTRF). Type of assay: cell-based. The following applies: G-402 cells, 1 μM Deoxycortisol. Summed up:
as §1

On to `O=C1c2ccc(Cl)cc2CCN1c1cncc(F)c1` [Example 5, 6-Chloro-2-(5-fluoro-pyridin-3-yl)-3,4-dihydro-2H-isoquinolin-1-one], for which the EC50 came out at 92.5 nM on human CYP11B2 and 4270 nM at human CYP11B1.

Regarding `Cc1cn[nH]c1-c1cncc(N2CCc3cc(Cl)ccc3C2=O)c1` [Example 420, 6-Chloro-2-[5-(4-methyl-2H-pyrazol-3-yl)-pyridin-3-yl]-3,4-dihydro-2H-isoquinolin-1-one], the EC50 is 27.4 nM at human CYP11B2 and 281 nM at human CYP11B1.

On to `CCS(=O)(=O)N1CCCC(c2cncc(N3C(=O)c4ccc(Cl)cc4C3(C)C)n2)C1` (centres unmarked) [Example 464, 5-Chloro-2-[6-(1-ethanesulfonyl-piperidin-3-yl)-pyrazin-2-yl]-3,3-dimethyl-2,3-dihydro-isoindol-1-one], for which the EC50 at human CYP11B2 turned out to be 2.8 nM; at human CYP11B1 it was 1650 nM.

Take `NCc1cncc(N2CCc3cc(Cl)ccc3C2=O)c1` [Example 192, 2-(5-Aminomethyl-pyridin-3-yl)-6-chloro-3,4-dihydro-2H-isoquinolin-1-one]: the half-maximal effective concentration (EC50) at human CYP11B2 came to 2200 nM; on human CYP11B1, 10300 nM.

`CC(=O)NC1CCCc2c1cncc2N1CCc2cc(Cl)ccc2C1=O` (single isomer, unassigned) [Example 321, N-((S or R)-6-Chloro-1-oxo-3,4,5′,6′,7′,8′-hexahydro-1H-[2,4′]biisoquinolinyl-8′-yl)-acetamide]: the figures for the EC50 at human CYP11B2 and on human CYP11B1 were 55.6 nM and 3990 nM, respectively.

For `CCC(=O)N[C@@H]1CCCc2c1cncc2N1C(=O)c2ccc(Cl)cc2[C@H]1C` (single isomer, unassigned) [Example 361, N-[(R or S)-4-((R or S)-5-Chloro-3-methyl-1-oxo-1,3-dihydro-isoindol-2-yl)-5,6,7,8-tetrahydro-isoquinolin-8-yl]-propionamide], the 50% effective concentration (EC50) on human CYP11B2 is 65.6 nM; at human CYP11B1, 9410 nM.

In the case of `O=C1c2ccc(Cl)cc2CN1c1cncc2c1CCC[C@H]2O` [Example 341, 5-Chloro-2-((R)-8-hydroxy-5,6,7,8-tetrahydro-isoquinolin-4-yl)-2,3-dihydro-isoindol-1-one], the EC50 on human CYP11B2 turned out to be 32.1 nM; at human CYP11B1 it was 1680 nM.

Turning to `CCC(=O)NC1CCc2c1cncc2N1Cc2cc(Cl)ccc2C1=O` (single isomer, unassigned) [Example 339, N-[(R or S)-4-(5-Chloro-1-oxo-1,3-dihydro-isoindol-2-yl)-6,7-dihydro-5H-[2]pyrindin-7-yl]-propionamide], the values for the EC50 at human CYP11B2 and on human CYP11B1 were 54.5 nM and 7990 nM, respectively.

Consider `COc1ccc2c(n1)C(C)(C)N(c1cncc(CNc3cc[nH]n3)c1)C2=O` [Example 384, 2-Methoxy-7,7-dimethyl-6-{5-[(1H-pyrazol-3-ylamino)-methyl]-pyridin-3-yl}-6,7-dihydro-pyrrolo[3,4-b]pyridin-5-one], for which the 50% effective concentration (EC50) is 24 nM at human CYP11B2 and 3160 nM at human CYP11B1.

Turning to `O=c1c2ccc(Cl)cc2ccn1-c1cccnc1` [Example 53, 6-Chloro-2-pyridin-3-yl-2H-isoquinolin-1-one], the EC50 on human CYP11B2 is 120 nM; on human CYP11B1, 10800 nM.

As for `Nc1cccc2c(N3CCc4cc(Cl)ccc4C3=O)cncc12` [Example 288, 8′-Amino-6-chloro-3,4-dihydro-[2,4′]biisoquinolinyl-1-one], the results for the concentration giving a half-maximal response (EC50) on human CYP11B2 and at human CYP11B1 were 539 nM and 8870 nM, respectively.

`CC1(C)c2cc(Cl)ccc2C(=O)N1c1cncc(CO)c1` [Example 133, 5-Chloro-2-(5-hydroxymethyl-pyridin-3-yl)-3,3-dimethyl-2,3-dihydro-isoindol-1-one]: the half-maximal effective concentration (EC50) at human CYP11B2 worked out at 98.6 nM; on human CYP11B1, 1370 nM.

For the compound `NC1(c2cncc(N3CCc4cc(Cl)ccc4C3=O)c2)CC1` [Example 57, 2-[5-(1-Amino-cyclopropyl)-pyridin-3-yl]-6-chloro-3,4-dihydro-2H-isoquinolin-1-one], the EC50 on human CYP11B2 amounted to 1280 nM; on human CYP11B1 it was 8000 nM.

On to `COc1cncc(N2CCc3nc(Cl)ccc3C2=O)c1` [Example 96, 2-Chloro-6-(5-methoxy-pyridin-3-yl)-7,8-dihydro-6H-[1,6]naphthyridin-5-one], for which the EC50 came out at 45.8 nM at human CYP11B2 and 533 nM on human CYP11B1.

As to `CC(=O)N1CCC(c2cncc(N3C(=O)c4ccc(Cl)cc4C3(C)C)c2)C1` (centres unmarked) [Example 460, 2-[5-(1-Acetyl-pyrrolidin-3-yl)-pyridin-3-yl]-5-chloro-3,3-dimethyl-2,3-dihydro-isoindol-1-one], the values for the EC50 at human CYP11B2 and at human CYP11B1 were 12.3 nM and 516 nM, respectively.

As to `CC[C@H]1c2cc(Cl)ccc2C(=O)N1c1cncc2c1CCC[C@@H]2NS(C)(=O)=O` (single isomer, unassigned) [Example 348, N-[(S or R)-4-((S or R)-5-Chloro-3-ethyl-1-oxo-1,3-dihydro-isoindol-2-yl)-5,6,7,8-tetrahydro-isoquinolin-8-yl]-methanesulfonamide], the EC50 on human CYP11B2 is 2830 nM; at human CYP11B1 it was 36900 nM.

As for `O=C1c2ccc(Cl)cc2CCN1c1cncc2cccc([N+](=O)[O-])c12` [Example 286, 6-Chloro-5′-nitro-3,4-dihydro-[2,4′]biisoquinolinyl-1-one], the EC50 on human CYP11B2 is 265 nM; at human CYP11B1, 3040 nM.

Turning to `CCS(=O)(=O)NCc1cncc(N2C(=O)c3ccc(F)cc3C23CC3)c1` [Example 393, N-{[5-(6′-Fluoro-3′-oxospiro [cyclopropane-1,1′-isoindol]-2′(3′H)-yl)pyridin-3-yl]methyl} ethane-sulfonamide], the EC50 was 265 nM on human CYP11B2 and 8430 nM on human CYP11B1.

As for `Cn1cc(-c2cncc(N3CCc4cc(Cl)ccc4C3=O)c2)cn1` [Example 239, 6-Chloro-2-[5-(1-methyl-1H-pyrazol-4-yl)-pyridin-3-yl]-3,4-dihydro-2H-isoquinolin-1-one], the EC50 on human CYP11B2 was 10.5 nM; on human CYP11B1 it was 90 nM.

As to `COc1cncc(N2CCc3cc(Cl)ccc3C2=O)c1` [Example 10, 6-Chloro-2-(5-methoxy-pyridin-3-yl)-3,4-dihydro-2H-isoquinolin-1-one], the concentration giving a half-maximal response (EC50) amounted to 26 nM at human CYP11B2 and 822 nM at human CYP11B1.

As to `Cc1c(-c2cncc(N3CCc4cc(Cl)ccc4C3=O)c2)cnn1C` [Example 423, 6-Chloro-2-[5-(1,5-dimethyl-1H-pyrazol-4-yl)-pyridin-3-yl]-3,4-dihydro-2H-isoquinolin-1-one], the values for the EC50 at human CYP11B2 and on human CYP11B1 were 63.7 nM and 1020 nM, respectively.

For `CCOc1ccc2c(n1)C(C)(C)N(c1cncc(F)c1)C2=O` [Example 299, 2-Ethoxy-6-(5-fluoro-pyridin-3-yl)-7,7-dimethyl-6,7-dihydro-pyrrolo[3,4-b]pyridin-5-one], the EC50 at human CYP11B2 turned out to be 787 nM; at human CYP11B1 it was 48500 nM.

Regarding `COc1ccc2c(n1)C(C)(C)N(c1cccnc1)C2=O` [Example 300, 2-Methoxy-7,7-dimethyl-6-pyridin-3-yl-6,7-dihydro-pyrrolo[3,4-b]pyridin-5-one], the EC50 on human CYP11B2 is 216 nM; at human CYP11B1, 14300 nM.

`CCS(=O)(=O)Nc1cccc2c(N3CCc4cc(Cl)ccc4C3=O)cncc12` [Example 289, Ethanesulfonic acid (6-chloro-1-oxo-3,4-dihydro-1H-[2,4′]biisoquinolinyl-8′-yl)-amide]: the figures for the EC50 on human CYP11B2 and on human CYP11B1 were 70.6 nM and 186 nM, respectively.

Take `Cc1noc(C)c1-c1cncc(N2CCc3cc(Cl)ccc3C2=O)c1` [Example 230, 6-Chloro-2-[5-(3,5-dimethyl-isoxazol-4-yl)-pyridin-3-yl]-3,4-dihydro-2H-isoquinolin-1-one]: the EC50 at human CYP11B2 was determined as 7 nM; at human CYP11B1 it was 149 nM.

Take `COc1cncc(N2CCc3nc(OC)ccc3C2=O)c1` [Example 97, 2-Methoxy-6-(5-methoxy-pyridin-3-yl)-7,8-dihydro-6H-[1,6]naphthyridin-5-one]: the EC50 was 16.9 nM at human CYP11B2 and 220 nM at human CYP11B1.

Turning to `CC1(C)c2cc(Cl)ccc2C(=O)N1c1cncc(CNS(C)(=O)=O)c1` [Example 391, N-[5-(6-Chloro-1,1-dimethyl-3-oxo-1,3-dihydro-isoindol-2-yl)-pyridin-3-ylmethyl]-methane-sulfonamide], the EC50 at human CYP11B2 was 29.7 nM; at human CYP11B1 it was 1450 nM.

For `CC1(C)c2cc(Cl)ccc2C(=O)N1c1cncc(N2CCN(C(=O)c3ncccc3Cl)CC2)c1` [Example 459, 5-Chloro-2-{5-[4-(3-chloro-pyridine-2-carbonyl)-piperazin-1-yl]-pyridin-3-yl}-3,3-dimethyl-2,3-dihydro-isoindol-1-one], the concentration for a half-maximal effect (EC50) at human CYP11B2 worked out at 5.6 nM; on human CYP11B1, 594 nM.
